Experimental data: BindingDB's records for doi:10.1016/s0968-0896(02)00095-0 (Purdue University, 2002)

Target: T1, Gag-Pol polyprotein [588-1027]/[588-1147] (Human immunodeficiency virus 1, UniProt P04585)
T1 construct: 588-1027; 588-1147
Experiment: HIV-1 RT Assay
Details: pH 7.9
Source text: The IC50 of reverse transcriptase is the concentration that inhibits 50% of recombinant HIV-1 RT RNA-directed DNA polymerase activity in vitro.

Question: Which IC50 does the source give for `CCOC(=O)N1CCC(=C(c2cc(Cl)c(O)c(C(=O)O)c2)c2cc(Cl)c(O)c(C(=O)O)c2)CC1` [5-[(3-carboxy-5-chloro-4-hydroxyphenyl)[1-(ethoxycarbonyl)piperidin-4-ylidene]methyl]-3-chloro-2-hydroxybenzoic acid] here?
Answer: The IC50 was greater than 100 µM.

Question: How did the IC50 turn out when `CCOC(=O)N1CCC(C(c2cc(C)c(OC)c(C(=O)OC)c2)c2cc(C)c(OC)c(C(=O)OC)c2)CC1` [Ethyl 4 - (4,4 - dimethoxy - 3,3 - di(methoxycarbonyl)-5,5-dimethyl-diphenylmethyl)piperidinecarboxylate] was run?
Answer: Its IC50 is greater than 100 µM.

Question: For `CCOC(=O)N1CCC(=C(c2cc(Cl)c(OC)c(C(=O)O)c2)c2cc(Cl)c(OC)c(C(=O)O)c2)CC1` [Ethyl 4-(3,3-dicarboxy-5,5-dichloro-4,4-dimethoxydiphenylmethylene)piperidinecarboxylate], which IC50 is on record?
Answer: Its IC50 is greater than 100 µM.

Question: With `CCOC(=O)N1CCC(=C(c2cc(Cl)c(OC)c(C(=O)OC)c2)c2cc(Cl)c(OC)c(C(=O)OC)c2)CC1` [Ethyl 4-(3,3-dichloro-4,4-dimethoxy-5,5-di(methoxycarbonyl)-diphenylmethylene)piperidinecarboxylate] as the compound, how does the IC50 read?
Answer: Its IC50 is greater than 100 µM.

Question: `COC(=O)c1cc(C(c2cc(C)c(OC)c(C(=O)OC)c2)C2CCN(C(=O)OC)CC2)cc(C)c1OC` [Methyl 4 - (4,4 - dimethoxy - 3,3 - di(methoxycarbonyl)-5,5-dimethyl-diphenylmethyl)piperidinecarboxylate] was tested. Which IC50 did it give?
Answer: Its IC50 is greater than 100 µM.

Question: `COC(=O)N1CCC(=C(c2cc(Cl)c(OC)c(C(=O)O)c2)c2cc(Cl)c(OC)c(C(=O)O)c2)CC1` [Methyl 4-(3,3-dicarboxy-5,5-dichloro-4,4-dimethoxydiphenylmethylene)piperidinecarboxylate] was tested. Which IC50 did it give?
Answer: Its IC50 is greater than 100 µM.

Question: `COC(=O)c1cc(C(=C2CCN(C(=O)OC)CC2)c2cc(C)c(OC)c(C(=O)OC)c2)cc(C)c1OC` [Methyl 4-(4,4-dimethoxy-3,3 - di(methoxycarbonyl) -5,5 - dimethyl - diphenylmethylene)piperidinecarboxylate] was tested. Which IC50 did it give?
Answer: Its IC50 is greater than 100 µM.

Question: `COC(=O)CCCC(=O)N1CCC(=C(c2cc(Cl)c(OC)c(C(=O)OC)c2)c2cc(Cl)c(OC)c(C(=O)OC)c2)CC1` [Methyl 5-[4-{3,3-dichloro-4,4-dimethoxy-5,5-di(methoxycarbonyl)diphenylmethylene}piperidyl]-5-oxopentanoate] was tested. Which IC50 did it give?
Answer: The IC50 was greater than 100 µM.

Question: Which IC50 does the source give for `COC(=O)CCCC(=O)N1CCC(=C(c2cc(C)c(OC)c(C(=O)OC)c2)c2cc(C)c(OC)c(C(=O)OC)c2)CC1` [Methyl 5-[4-{4,4-dimethoxy-4,4-bis(methoxycarbonyl)-5,5-(dimethyl)diphenylmethylene}piperidyl]-5-oxopentanoate] here?
Answer: The IC50 was greater than 100 µM.

Question: `CCOC(=O)N1CCC(=C(c2cc(Cl)c3c(c2)C(=O)OC(C)(C)O3)c2cc(Cl)c3c(c2)C(=O)OC(C)(C)O3)CC1` [ethyl 4-[bis(8-chloro-2,2-dimethyl-4-oxo-2,4-dihydro-1,3-benzodioxin-6-yl)methylidene]piperidine-1-carboxylate] was tested. Which IC50 did it give?
Answer: Its IC50 is greater than 100 µM.

Question: `CCOC(=O)N1CCC(=C(c2cc(C)c(OC)c(C(=O)OC)c2)c2cc(C)c(OC)c(C(=O)OC)c2)CC1` [ethyl 4-{bis[4-methoxy-3-(methoxycarbonyl)-5-methylphenyl]methylidene}piperidine-1-carboxylate] was tested. Which IC50 did it give?
Answer: Its IC50 is greater than 100 µM.

Question: How did the IC50 turn out when `COC(=O)c1cc(C(=C2CCN(C(=O)OC)CC2)c2cc(Cl)c(OC)c(C(=O)OC)c2)cc(Cl)c1OC` [methyl 4-{bis[3-chloro-4-methoxy-5-(methoxycarbonyl)phenyl]methylidene}piperidine-1-carboxylate] was run?
Answer: The IC50 was greater than 100 µM.

Question: Which IC50 does the source give for `COC(=O)N1CCC(=C2c3ccccc3C=Cc3ccccc32)CC1` [methyl 4-{tricyclo[9.4.0.0^{3,8}]pentadeca-1(11),3,5,7,9,12,14-heptaen-2-ylidene}piperidine-1-carboxylate] here?
Answer: Its IC50 is greater than 100 µM.

Question: Which IC50 does the source give for `COC(=O)N1CCC(=C2c3ccccc3CCc3ccccc32)CC1` [methyl 4-{tricyclo[9.4.0.0^{3,8}]pentadeca-1(11),3,5,7,12,14-hexaen-2-ylidene}piperidine-1-carboxylate] here?
Answer: Its IC50 is greater than 100 µM.
